Source: US20050090457A1, “Method of treating mammals with genistein and/or genistein analogues” (N.V. NUTRICIA, priority 2002, published 2005)
Where two headings read alike, the source gives them in different places.

Experiments:
[1] = biological target: T1, PPARγ (Homo sapiens, UniProt P37231); assay: Membrane-bound PPARγ binding assay
T1 sequence (P37231 1-505): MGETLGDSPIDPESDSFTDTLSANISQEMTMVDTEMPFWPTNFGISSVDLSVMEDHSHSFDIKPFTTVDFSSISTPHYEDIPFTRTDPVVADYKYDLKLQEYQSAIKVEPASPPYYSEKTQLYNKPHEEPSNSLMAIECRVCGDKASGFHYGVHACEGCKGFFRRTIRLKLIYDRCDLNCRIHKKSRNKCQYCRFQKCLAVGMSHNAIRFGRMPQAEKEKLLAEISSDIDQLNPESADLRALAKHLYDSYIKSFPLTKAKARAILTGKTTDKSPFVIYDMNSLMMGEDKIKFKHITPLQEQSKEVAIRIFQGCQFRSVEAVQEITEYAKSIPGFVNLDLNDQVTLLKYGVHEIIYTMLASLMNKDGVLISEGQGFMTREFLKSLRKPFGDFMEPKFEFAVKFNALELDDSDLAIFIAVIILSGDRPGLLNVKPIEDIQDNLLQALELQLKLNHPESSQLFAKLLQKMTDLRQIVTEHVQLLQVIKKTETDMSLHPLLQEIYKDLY
Excerpt: The dose-related increase of PPRE reporter activity by genistein was also observed when a luciferase reporter construct containing three copies of a consensus PPRE inserted in front of a minimal thymidine kinase promoter. To determine whether genistein activates PPARγ through direct interaction with this receptor, we performed membrane-bound PPARγ binding assay.

[2] = biological target: T2, PPARγ (Mus musculus, UniProt P37238); details: cited from earlier work; for PPARγ binding and activation: may act as allosteric effectors
T2 construct: host or cells: mouse macrophages
T2 sequence (P37238 1-505): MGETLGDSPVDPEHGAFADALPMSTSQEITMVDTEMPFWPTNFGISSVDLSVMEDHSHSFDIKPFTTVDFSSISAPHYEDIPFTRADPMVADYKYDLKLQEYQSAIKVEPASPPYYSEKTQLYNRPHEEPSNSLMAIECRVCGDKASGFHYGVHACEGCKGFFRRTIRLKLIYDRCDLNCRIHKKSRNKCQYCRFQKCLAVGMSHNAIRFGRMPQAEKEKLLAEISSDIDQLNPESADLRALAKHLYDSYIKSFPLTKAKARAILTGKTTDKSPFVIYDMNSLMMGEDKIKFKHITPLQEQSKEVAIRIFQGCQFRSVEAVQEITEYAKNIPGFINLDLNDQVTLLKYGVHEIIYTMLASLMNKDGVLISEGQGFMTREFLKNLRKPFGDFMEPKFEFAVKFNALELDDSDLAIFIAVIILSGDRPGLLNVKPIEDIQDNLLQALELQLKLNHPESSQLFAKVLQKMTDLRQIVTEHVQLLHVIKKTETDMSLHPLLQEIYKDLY

[3] = test system: 3T3-L1; details: cited from earlier work; for proliferation of preadipocytes: time- and dose-dependent
[4] = test system: mouse bone marrow cells; assay: Adipogenesis (adipocyte numbers) in mouse bone marrow cultures; format: cell-based
Excerpt: (§1) These inhibitory and stimulatory effects of genistein on adipogenesis in KS483 cells were further confirmed by mRNA expression of the adipocyte markers, PPARγ2, adipocyte protein 2 (aP2) and lipoprotein lipase (LPL). Adipogenic responses of mouse bone marrow cells to different doses of genistein were obtained.

[5] = test system: p42 and p44 MAPK; assay: Western blot of p42 and p44 MAPK activity; format: cell-based
Excerpt: It has been shown that phosphorylation of PPARγ by p42 and p44 mitogen activated protein kinase (MAPK) regulates PPARγ activity. We therefore performed western blot to test whether genistein at the micromolar concentrations inhibit p42 and p44 MAPK activity. […] An inhibition of p42 and p44 vMAPK activity is likely to potentiate PPARγ activity.

[6] = test system: 3T3-L1 cels; details: cited from earlier work
[7] = test system: osteogenesis and adipogenesis; assay: In vitro model, summary: osteogenesis stimulated and adipogenesis inhibited; format: cell-based; details: low plasma concentrations, ER mediated
Excerpt: (§2) Despite the large number of prior art publications that deal with the favourable effect of genistein on e.g. osteogenesis and/or adipogenesis, it has not been recognized before that it is crucial to avoid that plasma genistein levels reach a level that is sufficient to activate the PPARγ receptor in order to prevent inhibition of osteoblast activity and differentiation and to prevent stimulation of adipogenesis. As a matter of fact some of these publications recommend genistein dosages and plasma levels that according to the inventors' findings will produce significant adverse results. The inventors have developed a highly reproducible and sensitive in vitro model that has allowed them to discover that the effect of genistein components on e.g. osteogenesis and adipogenesis is biphasic, i.e. at plasma genistein levels above about 0.02 μM estrogen receptors (ER's) may be activated, leading to stimulation of osteogenesis, whilst at plasma genistein levels above about 4 μM the PPARγ receptor is activated, which triggers adipogenesis. By maintaining the plasma genistein levels at a level where the estrogen receptors are continuously activated, whilst at the same time avoiding activation of the PPARγ receptor, disorders such as osteoporosis and obesity may effectively be treated. […] These effects are mediated through the ER's.

[8] = test system: human bone marrow cultures; assay: Adipogenesis (adipocyte numbers) in human bone marrow cultures; format: cell-based
[9] = test system: KS 483 cells; assay: Osteogenesis in KS 483 cells (ALP activity, nodule formation, Ca deposition, osteoblastic marker mRNA); format: cell-based
Protocol: KS 483 cells were continuously treated for 21 days with various concentrations of genistein from day one onwards. Genistein had clear biphasic effects on osteogenesis. The stimulatory effects of genistein on alkaline phosphatase (ALP) activity, nodule formation and Ca deposition were found in the range of 0.1 μM to 10 μM, with a maximal effect at 1 μM. In contrast, the inhibitory effects of genistein on ALP activity, nodule formation and Ca deposition occurred at concentrations of 25 μM or higher.

[10] = test system: ovariectomised, lactating rats; details: cited from earlier work
[11] = biological target: T3, human PPARγ2 (Homo sapiens, UniProt P37231); assay: PPRE luciferase reporter in KS483 cells with human PPARγ2 expression plasmid; format: cell-based
T3 construct: expressed in transfected cells; host or cells: KS483 cells
T3 sequence (P37231 1-505): T1 sequence (P37231 1-505)
Excerpt: (§3) KS483 cell were transiently transfected with a luciferase reporter construct containing two copies of a consensus estrogenic receptor responsive element (ERE) inserted in front of TATA or five copies of a consensus PPARy responsive element (PPRE) inserted in front of TATA or empty TATA-luciferase reporter along with expression plasmids encoding human PPARγ2.
To determine whether genistein activates PPARγ through direct interaction with this receptor, we performed membrane-bound PPARγ binding assay.

[12] = test system: estrogenic receptor responsive element (ERE); assay: ERE luciferase reporter in transiently transfected KS483 cells; format: cell-based
Protocol: as §3, with “PPARγ2. […] Similarly, a dose-related increase of PPRE reporter activity was found in the range of 1 μM to 50 μM.” for “PPARγ2.”
It is also possible that an activation of PPARγ down regulated transcriptional activity of estrogen, i.e. there is cross-talk between ER's and PPARγ. […] Ligand concentration thus plays a crucial role in determining the degree of activation of ER's and PPARγ.

[13] = test system: KS483 cells; assay: Adipogenesis (adipocyte numbers) in KS483 cells; format: cell-based; details: KS483 cells treated from day 1 onwards
Excerpt: as §1

[14] = biological target: T1, PPARγ; assay: In vitro model, summary: activation of and binding to PPARγ; format: cell-based; details: triggers adipogenesis
Excerpt: as §2
At the same time the adipogenesis increases. […]

[15] = test system: estrogen receptors (ER's); assay: In vitro model, summary: activation of estrogen receptors; format: cell-based; details: leads to stimulation of osteogenesis
[16] = cited from earlier work
[17] = dose 8 mg/kg body weight; cited from earlier work
[18] = test system: human bone marrow cell cultures; assay: Osteogenesis in human bone marrow cell cultures; format: cell-based
Protocol: (§4) Similar stimulatory and inhibitory effects of genistein on bone formation were also observed in mouse and human bone marrow cell cultures. Like in KS483 cells, the stimulatory effects on ALP activity and Ca deposition in mouse bone marrow cultures occurred at concentrations between 0.1 μM and 10 μM, whereas the inhibitory effects were also found at the concentrations of 25 μM or higher. In human bone marrow cell cultures, the stimulatory effects was found at 0.001 μM, whereas the inhibitory effects were observed above 4 μM.

[19] = test system: mouse bone marrow cell cultures; assay: Osteogenesis in mouse bone marrow cell cultures; format: cell-based
Protocol: as §4

[20] = 61.7 μmole genistein per kg bodyweight per day

CCCc1c(OCCCCc2nnn[nH]2)ccc(C(C)=O)c1O [LY 171883, reference compound]
Ki [1]: 4.2 µM

O=c1cc(-c2ccc(O)cc2)oc2cc(O)cc(O)c12 [apigenin]
PPARγ binding and activation [2]: able to bind and activate PPARγ

O=C1C[C@@H](c2ccc(O)cc2)Oc2cc(O)cc(O)c21 [naringenin, reference compound]
proliferation of preadipocytes [3]: inhibit proliferation of preadipocytes

O=c1c(O)c(-c2ccc(O)cc2)oc2cc(O)cc(O)c12 [kaempferol]
PPARγ binding and activation [2]: able to bind and activate PPARγ

O=c1c(-c2ccc(O)cc2)coc2cc(O)cc(O)c12 [genistein]
concentrations with an increase in adipocyte numbers [4]: above 4 μM | concentration range of inhibition of p42 and p44 MAPK activity [5]: micromolar range | PPARγ activity ([2]; concentration of 10 μM): not stimulate PPARγ activity | D/M induced adipogenesis ([6]; 3.3 μM, lowest concentration tested): weak inhibitory influence | D/M induced adipogenesis ([6]; 100 μM): effectively abolishes adipogenic conversion | D/M induced adipogenesis ([6]; 10 and 33 μM): marked inhibition of adipogenesis | plasma concentrations at which osteogenesis is stimulated and adipogenesis is inhibited [7]: 0.02 to 3 µM | concentration with an increase in adipocyte numbers [8]: 10 µM | PPAR-γ expression ([3]; added to 2-day postconfluent preadipocytes at the induction of differentiation): inhibit PPAR-γ expression | proliferation of preadipocytes [3]: inhibit proliferation of preadipocytes | concentration of maximal stimulatory effect on ALP activity, nodule formation and Ca deposition ([9]; KS 483 cells, 21 days): 1 µM | concentrations of inhibitory effects on ALP activity, nodule formation and Ca deposition ([9]; KS 483 cells, 21 days): ≥ 25 µM | bone formation by mRNA expression of Cbfal, osteocalcin and PTH/PTHrP receptor ([9]; genistein 1 μM): increase of bone formation | bone formation by mRNA expression of Cbfal, osteocalcin and PTH/PTHrP receptor ([9]; genistein 25 μM): decrease of bone formation | effect on uterine weight [10, 20]: negative impact on uterine weight | response on retention of bone mass [10, 20]: lower response | dosages with positive effect on the retention of bone mass ([10]; ovariectomised, lactating rats): 6.2-19.7 μmole genistein per kg bodyweight per day | concentration at which PPRE reporter activity reaches the maximal level ([11]; KS483 cells): 50 µM | effect of co-transfection of ERα on PPRE reporter activity ([11]; KS483 cells exposed to genistein): down regulation of PPRE reporter activity | concentration at which ERE reporter activity reaches the maximal level ([12]; KS483 cells): 50 µM | effect of co-transfection of PPARγ2 on ERE reporter activity ([12]; KS483 cells exposed to the same concentrations of genistein): decreased ERE reporter activity | concentrations of increased adipocyte numbers [13]: ≥ 10 µM | genistein level above which the PPARγ receptor is bound/activated [14]: above 4 μM | plasma genistein level above which estrogen receptors may be activated [15]: above 0.02 μM | plasma concentration of genistein ([16]; Japanese who consume high amounts of soy products): ~5 µM | plasma concentration of genistein ([16]; humans consuming diets without soy): less than 20 nM | serum genistein [17]: ~10 µM | concentration at which stimulatory effects on bone formation were found [18]: 0.001 µM | concentrations at which inhibitory effects on bone formation were observed [18]: above 4 μM | Ki [1]: 5.7 µM | concentrations of inhibitory effects on bone formation [19]: ≥ 25 µM
